The subject of one experiment is human neutrophils. Nature of the experiment: Phagokinetic activity of human neutrophils on gold sol-coated plates. The experiment is classed as cell-based. As to conditions: for Cleared area: 2 hours, mean ± S.D., control 6.3 ± 2.3; for Reduction in phagokinetic activity of human neutrophils: Table VII, in words. The protocol: Phagokinetic activity is measured by the ability of cells to ingest foreign particles while moving. Cell motility can be estimated as the area of a phagokinetic track on gold sol particle-coated plates as previously described {Albrecht-Buehler, Cell, 11:395 (1977)}. A uniform coating of gold particles is prepared on glass coverslips precoated with bovine serum albumin, and coverslips are rinsed repeatedly to remove non-adhering or loosely-adhering gold particles. Freshly-prepared neutrophils or tumor cells detached from culture are placed in a Petri dish containing the gold sol-coated plate, and incubated for about 2 hours (for human neutrophils) or about 18 hours (for tumor cells). The coverslips are fixed for 1 hour in a 4% formaldehyde solution in phosphate-buffered saline (PBS) and mounted on microscope slides. The phagokinetic tracks are observed on a television connected to a light microscope (Nikon, Tokyo, Japan). Tracks on the television are transferred to translucent sheets, which are then photocopied. Phagokinetic activity is quantitated by cutting and weighing the swept area in the copy.
Cell motility was estimated as the area of phagokinetic track on gold sol particle-coated plates as previously described {Albrecht-Buehler, Cell, 11:395 (1977)}. A uniform coating of gold particles was prepared on glass coverslips precoated with bovine serum albumin, and the coverslips were rinsed repeatedly to remove non-adhering or loosely-adhering gold particles. Freshly-prepared neutrophils or tumor cells detached from culture were placed in a Petri dish containing the gold sol-coated plate, and incubated for 2 hours (for human neutrophils) or 18 hours (for tumor cells). The coverslips were fixed for 1 hour in 4% formaldehyde solution in phosphate-buffered saline (PBS) and mounted on microscope slides. The phagokinetic tracks were observed on a television connected to a light microscope (Nikon, Tokyo, Japan). Tracks on the television were transferred to translucent sheets, which were then photocopied. Phagokinetic activity was quantitated by cutting and weighing the swept area in the copy.
**mean ± S.D. Freshlyprepared neutrophils (1 × 10^4
cell/plate) were seeded on a coverslip precoated with gold sol particles
in the presence or absence of test compound. 2 hours later, incubation wa
terminated by adding 200 μl of 10% formaldehyde and the cleared area
was estimated as described in the text.

Experiment [1] has as its system B16/F1 melanoma cells. Nature of the experiment: Chemoinvasion of B16/F1 cells through thick MATRI-GEL layer on transwell filter. It counts as cell-based, mouse. As to conditions: for Effect on invasion compared with SPN-1-P: FIG. 10; for % invasion: percent relative to control, mean ± S.E., n = 3 or 4, concentration not given, 4200 min. The protocol: (§1) The assays for determining chemotactic cell motility and chemoinvasion can be performed using transwell plates with a polycarbonate membrane filter (pore size 8 μm) (Costar Scientific, Cambridge, Mass.). Aliguots, e.g., 50 μl, of an aqueous solution of MATRI-GEL (Collaborative Research, Bedford, Mass.) containing SPN-1-P or other inhibitor (e.g., 20 μg/ml for chemotactic motility assay or 200 μg/ml for chemoinvasion assay), is added to each well and dried overnight. The filter is then fitted onto the lower chamber plate. The lower chamber can contain conditioned medium (CM) (i.e., medium used for splenic stromal cell culture, and containing motility factor secreted by these cells), e.g., 0.6 ml, with or without SPN-1-P or other inhibitor. To the upper chamber is added, e.g., about 100 μl, of cell suspension (5×10^4 cells/ml for invasion assay, 5×10^5 cells/ml for motility assay), which is then incubated in 5% CO2 at 37° C. for 70-72 hours (invasion assay) or 20 hours (motility assay). After incubation, cells remaining in the upper chamber are wiped off with a cotton swab, and cells which had migrated to the lower chamber side of the filter are fixed in methanol for 30 seconds and stained with 0.05% toluidine blue. The filter is removed, the stain is solubilized in 10% acetic acid (e.g., 0.1 ml for invasion assay, 0.5 ml for motility assay), and color intensity (optical density) is quantitated by ELISA reading at 630 nm. Using SPN-1-P, a linear relationship was observed between cell number and toluidine blue optical density (FIG. 7).
(§2) Assays were performed using transwell plates with polycarbonate membrane filters (pore size 8 μm) (Costar Scientific, Cambridge, Mass.). 50 μl aliguots of an aqueous solution of MATRI-GEL (Collaborative Research, Bedford, Mass.) containing 20 μg/ml (for chemotactic motility assay) or 200 μg/ml (for chemoinvasion assay) were added to each well and dried overnight. The filter was fitted onto the lower chamber plate. The lower chamber contained 0.6 ml conditioned medium (CM) (i.e., medium used for splenic stromal cell culture, and containing motility factor secreted by these cells) with or without the suspected inhibitor. To the upper chamber was added 100 μl of cell suspension (5×10^4 cells/ml for invasion assay, 5×10^5 cells/ml for motility assay), which was then incubated in 5% CO2 at 37° C. for 70-72 hours (invasion assay) or 20 hours (motility assay). After incubation, cells remaining in the upper chamber were wiped off with a cotton swab, and cells which had migrated to the lower chamber side of the filter were fixed in methanol for 30 seconds and stained with 0.05% toluidine blue. The filter was removed, the stain was solubilized in 10% acetic acid (0.1 ml for invasion assay, 0.5 ml for motility assay), and color intensity (optical density) was quantitated by ELISA reading at 630 nm. A linear relationship was observed between cell number and toluidine blue optical density (FIG. 7.).
Chemoinvasion was measured by the ability of tumor cells in CM (as described above) to migrate through a thick layer of MATRI-GEL during a prolonged incubation period (70 hours). This property is distinct from chemotactic cell motility, which involves a much shorter incubation period (20 hours) and a thin layer of MATRI-GEL. For the chemoinvasion assay, 10 μg of MATRI-GEL was applied to a polycarbonate transwell filter and migration was observed following 70 hours incubation (based on results shown in FIG. 8).

Experiment [2] concerns B16/F1 melanoma cells. Nature of the experiment: Chemotactic motility of B16/F1 cells through MATRI-GEL-coated transwell filter. The experiment is classed as cell-based, mouse. As to conditions: for % motility: percent relative to control, n = 3 or 4, concentration not given. As to the method: as §1, §2
In experiments with different quantities of MATRI-GEL, cell migration through transwell filter was maximal with 1 μg/well was applied, and when CM was used (FIG. 8). Therefore, chemotactic cell motility, as affected by various SPN derivatives, was assayed under these conditions.
*Mean ± S.E. of percent relative to control (n = 4). Actual O.D. value
and 0.147 (HT1080). 6 × 10^4 cells were placed on a transwell
filter coated with 1.0 μg MATRIGEL in the upper chamber, and cultured
for 18 hours in the presence of CM and SPN1-P in the lower chamber.

For experiment [3], the system named is B16/F1 melanoma cells. As to the kind of experiment: Growth of B16/F1 melanoma cells (cell count after 48 hr). As to conditions: for Growth-inhibitory effect / activity at 10 µM: 10 μM; for Growth-inhibitory effect: B16/F1 cells. It counts as cell-based, mouse.
Experimental: *Mean ± S.E. (n = 3). For controls (defined as 100%), cell number was
10^5 cells were seeded and
cultured on a 35 mm plastic dish in Dulbecco's modified Eagle's medium
containing 2% fetal bovine serum in the presence or absence of SPN
derivatives. 48 hr later, cells were counted.
Setting [4] is: Mus musculus, B16-F1, 48 hr, control = 100%, mean ± S.E., n = 3.
Setting [5] is: comparison with other sphingolipids.

Entries after “also recorded” stand apart in the source; their conditions may differ.

Turning to `CCCCCCCCCCCCC/C=C/[C@@H](O)[C@H](CO)[N+](C)(C)C` [TMS, N,N,N-trimethylsphingosine], in the experiment with human neutrophils (0.45 μM), the Cleared area is reported as 5.4 ± 2.7 × 10^3 μm^2. Besides, the Cleared area in the experiment on human neutrophils (1.0 μM) is listed as 3.6 ± 1.5 × 10^3 μm^2. The “Reduction in phagokinetic activity of human neutrophils” value in the experiment with human neutrophils is listed as “most striking”. The “Effect on invasion compared with SPN-1-P” value with B16/F1 melanoma cells [1] (70 hours) is given as “weaker effect”. The “% invasion” value with B16/F1 melanoma cells [1] was 75 ± 8%. For the same compound, in the experiment with B16/F1 melanoma cells [2] (10^-5 M, 20 hour), the “Inhibition of motility” value is recorded as “only weak inhibition of motility”. Also, the “% motility” value with B16/F1 melanoma cells [2] (mean ± S.E.) was found to be 100 ± 19%. Moreover, the “Growth-inhibitory effect” value with B16/F1 melanoma cells [3] is given as “strong”. In addition, in the experiment on B16/F1 melanoma cells [3] (setting [4]), the activity at 1 µM amounted to 88 ± 7%, the activity at 5 µM amounted to 77 ± 8% and the activity at 10 µM stood at 11 ± 1%.
Take `CCCCCCCCCCCCC/C=C/[C@@H](O)[C@@H](N)COP(=O)(O)O` [SPN-1-P, sphingosine-1-phosphate]: the Cleared area in the experiment with human neutrophils (0.45 μM) is on record as 5.5 ± 2.7 × 10^3 μm^2; with human neutrophils (1.0 μM), 5.4 ± 2.4 × 10^3 μm^2; in the experiment on human neutrophils (4.5 μM), 3.5 ± 1.4 × 10^3 μm^2. In the experiment with human neutrophils, the “Reduction in phagokinetic activity of human neutrophils” value is on record as “most striking”. The “Inhibition of invasion” value in the experiment on B16/F1 melanoma cells [1] (10^-8 or 10^-7 M, 70 hours) was “strongly inhibited”. The “Inhibition of chemoinvasion compared with other sphingolipids” value with B16/F1 melanoma cells [1] (setting [5]) is listed as “unexpectedly superior inhibition”. Moreover, the “Inhibition of B16/F1 motility, comparison” value in the experiment on B16/F1 melanoma cells [2] (FIG. 9, 20 hour) is “inhibited most strongly; also recorded: same dose-dependent inhibitory effect on cell motility”. The inhibition at 0.1 µM with B16/F1 melanoma cells [2] (Mus musculus, B16-F1, 10^-7 M, 20 hour, CM, lower chamber, read-out: Motility blocked) is 100%. The inhibition at 0.01 µM in the experiment on B16/F1 melanoma cells [2] (Mus musculus, B16-F1, 10^-8 M, 20 hour, CM, lower chamber, read-out: Motility blocked) is 90%. The activity at 0.001 µM in the experiment on B16/F1 melanoma cells [2] (Mus musculus, B16-F1, F1, 0.001 μM, 18 hours, relative to control, mean ± S.E., n = 4) turned out to be 82 ± 44%. Also, the activity at 0.01 µM was determined as 12 ± 7% with B16/F1 melanoma cells [2] (Mus musculus, B16-F1, F1, 0.01 μM, 18 hours, relative to control, mean ± S.E., n = 4) and 103 ± 10% with B16/F1 melanoma cells [3] (Mus musculus, B16-F1, 0.01 μM, 48 hr, control = 100%, mean ± S.E., n = 3). In addition, the activity at 0.1 µM in the experiment with B16/F1 melanoma cells [2] (Mus musculus, B16-F1, F1, 0.1 μM, 18 hours, relative to control, mean ± S.E., n = 4) was found to be 6 ± 2%; in the experiment on B16/F1 melanoma cells [3] (Mus musculus, B16-F1, 0.1 μM, 48 hr, control = 100%, mean ± S.E., n = 3), 97 ± 5%. Further, the activity at 1 µM with B16/F1 melanoma cells [2] (Mus musculus, B16-F1, F1, 1.0 μM, 18 hours, relative to control, mean ± S.E., n = 4) was 8 ± 2%; with B16/F1 melanoma cells [3] (setting [4]), 105 ± 10%. The “Susceptibility of B16/F1 cells (chemotactic motility)” value with B16/F1 melanoma cells [2] (Table V, in words) is given as “high”. The “Inhibition of cell motility compared with other sphingolipids” value in the experiment on B16/F1 melanoma cells [2] (setting [5]) is “much stronger than that for SPN, N,N-dimethylsphingosine (DMS), or N,N,N-trimethylsphingosine (TMS); also recorded: unexpectedly superior inhibition”. Further, the “% motility” value in the experiment on B16/F1 melanoma cells [2] (mean ± S.E.) is listed as 5 ± 1%. Also, the “Growth-inhibitory effect” value in the experiment on B16/F1 melanoma cells [3] is listed as “no growth-inhibitory effect”. Moreover, the activity at 5 µM in the experiment on B16/F1 melanoma cells [3] (setting [4]) worked out at 96 ± 2%. In the experiment with B16/F1 melanoma cells [3] (setting [4]), the activity at 10 µM is 87 ± 10%.
As to `CCCCCCCCCCCCC/C=C/[C@@H](O)[C@@H](N)CO` [SPN, sphingosine], the Cleared area in the experiment with human neutrophils (0.45 μM) is 5.2 ± 2.0 × 10^3 μm^2. The “Effect on invasion compared with SPN-1-P” value in the experiment with B16/F1 melanoma cells [1] (70 hours) was “weaker effect”. Besides, the “% invasion” value with B16/F1 melanoma cells [1] is listed as 16 ± 7%. In the experiment on B16/F1 melanoma cells [2] (Mus musculus, B16-F1, 20 h, read-out: Motility blocked), the inhibition at 10 µM was 100%. Moreover, the “Growth-inhibitory effect” value with B16/F1 melanoma cells [3] is reported as “moderate growth-inhibitory effect”. In the experiment on B16/F1 melanoma cells [3] (setting [4]), the activity at 1 µM stood at 101 ± 1%, the activity at 5 µM stood at 87 ± 10% and the activity at 10 µM was found to be 78 ± 4%.

Values taken from patent publication US5391800A, “Method for inhibition of cell motility by sphingosine-1-phosphate, its derivatives and mimetics and method of synthesizing sphingosine-1-phosphate and its derivatives” (The Biomembrane Institute, priority 1993, dated 1995).
